What was measured:
Test in all cases: relative viability (nuclei count vs DMSO), 5 days (fraction); higher = more cells survive
NCI-H647 = tested on: NCI-H647
How it was run: (§1)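 After 5 days of treatment, lung cancer cells in 1536-well plates were fixed and stained in a single step (final 0.05% Triton X-100, 1% formaldehyde, 1 ug/ml Hoechst) and their nuclei counted on 4× images. Treatment had been applied by pin tool the day after seeding as one drug alone or as a fixed anchor-drug dose with five library-drug doses (not always all listed) in √10 steps. Relative viability is the nuclei count of treated wells divided by that of vehicle wells, and values are medians of duplicate plates.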

NCI-H2347 = tested on: NCI-H2347
How it was run: as §1

HCC-78 = tested on: HCC-78
How it was run: as §1

LOU-NH91 = tested on: LOU-NH91
How it was run: as §1

LCLC-103H = tested on: LCLC-103H
How it was run: as §1

LXF-289 = tested on: LXF-289
How it was run: as §1

NCI-H1793 = tested on: NCI-H1793
How it was run: as §1

LCLC-97TM1 = tested on: LCLC-97TM1
How it was run: as §1

NCI-H838 = tested on: NCI-H838
How it was run: as §1

PC-3 [JPC-3] = tested on: PC-3 [JPC-3]
How it was run: as §1

RERF-LC-KJ = tested on: RERF-LC-KJ
How it was run: as §1

HARA = tested on: HARA
How it was run: as §1

COR-L23 = tested on: COR-L23
How it was run: as §1

LK-2 = tested on: LK-2
How it was run: as §1

A-427 = tested on: A-427
How it was run: as §1

UMC-11 = tested on: UMC-11
How it was run: as §1

NCI-H2405 = tested on: NCI-H2405
How it was run: as §1

NCI-H520 = tested on: NCI-H520
How it was run: as §1

NCI-H1650 = tested on: NCI-H1650
How it was run: as §1

NCI-H1651 = tested on: NCI-H1651
How it was run: as §1

201T = tested on: 201T
How it was run: as §1

NCI-H23 = tested on: NCI-H23
How it was run: as §1

Cc1cn(-c2cc(NC(=O)c3ccc(C)c(Nc4nccc(-c5cccnc5)n4)c3)cc(C(F)(F)F)c2)cn1 [Nilotinib] + CS(=O)(=O)N1CCN(Cc2cc3nc(-c4cccc5[nH]ncc45)nc(N4CCOCC4)c3s2)CC1 [Pictilisib] (partner 1 µM)
relative viability (NCI-H647; first compound 0.001 µM): 0.528 | relative viability (NCI-H647; first compound 0.003162 µM): 0.452 | relative viability (NCI-H647; first compound 0.01 µM): 0.38 | relative viability (NCI-H647; first compound 0.03162 µM): 0.43 | relative viability (NCI-H647; first compound 0.1 µM): 0.397 | relative viability (NCI-H2347; first compound 0.001 µM): 0.644 | relative viability (NCI-H2347; first compound 0.003162 µM): 0.679 | relative viability (NCI-H2347; first compound 0.01 µM): 0.717 | relative viability (NCI-H2347; first compound 0.03162 µM): 0.635 | relative viability (NCI-H2347; first compound 0.1 µM): 0.401 | relative viability (HCC-78; first compound 0.001 µM): 0.211 | relative viability (HCC-78; first compound 0.003162 µM): 0.178 | relative viability (HCC-78; first compound 0.01 µM): 0.198 | relative viability (HCC-78; first compound 0.03162 µM): 0.202 | relative viability (HCC-78; first compound 0.1 µM): 0.224 | relative viability (LOU-NH91; first compound 0.001 µM): 0.548 | relative viability (LOU-NH91; first compound 0.003162 µM): 0.537 | relative viability (LOU-NH91; first compound 0.01 µM): 0.543 | relative viability (LOU-NH91; first compound 0.03162 µM): 0.483 | relative viability (LOU-NH91; first compound 0.1 µM): 0.54 | relative viability (LCLC-103H; first compound 0.001 µM): 0.649 | relative viability (LCLC-103H; first compound 0.003162 µM): 0.638 | relative viability (LCLC-103H; first compound 0.03162 µM): 0.755 | relative viability (LCLC-103H; first compound 0.1 µM): 0.421 | relative viability (LXF-289; first compound 0.001 µM): 0.837 | relative viability (LXF-289; first compound 0.003162 µM): 0.946 | relative viability (LXF-289; first compound 0.01 µM): 0.858 | relative viability (LXF-289; first compound 0.03162 µM): 0.667 | relative viability (LXF-289; first compound 0.1 µM): 0.335 | relative viability (NCI-H1793; first compound 0.003162 µM): 0.32 | relative viability (NCI-H1793; first compound 0.01 µM): 0.31 | relative viability (NCI-H1793; first compound 0.03162 µM): 0.31 | relative viability (NCI-H1793; first compound 0.1 µM): 0.235 | relative viability (LCLC-97TM1; first compound 0.001 µM): 0.184 | relative viability (LCLC-97TM1; first compound 0.003162 µM): 0.213 | relative viability (LCLC-97TM1; first compound 0.01 µM): 0.16 | relative viability (LCLC-97TM1; first compound 0.03162 µM): 0.167 | relative viability (LCLC-97TM1; first compound 0.1 µM): 0.123 | relative viability (NCI-H838; first compound 0.001 µM): 0.408 | relative viability (NCI-H838; first compound 0.003162 µM): 0.491 | relative viability (NCI-H838; first compound 0.01 µM): 0.335 | relative viability (NCI-H838; first compound 0.03162 µM): 0.41 | relative viability (NCI-H838; first compound 0.1 µM): 0.336 | relative viability (PC-3 [JPC-3]; first compound 0.001 µM): 0.791 | relative viability (PC-3 [JPC-3]; first compound 0.003162 µM): 0.88 | relative viability (PC-3 [JPC-3]; first compound 0.01 µM): 0.833 | relative viability (PC-3 [JPC-3]; first compound 0.03162 µM): 0.747 | relative viability (PC-3 [JPC-3]; first compound 0.1 µM): 0.342 | relative viability (RERF-LC-KJ; first compound 0.001 µM): 0.549 | relative viability (RERF-LC-KJ; first compound 0.003162 µM): 0.572 | relative viability (RERF-LC-KJ; first compound 0.01 µM): 0.533 | relative viability (RERF-LC-KJ; first compound 0.03162 µM): 0.591 | relative viability (RERF-LC-KJ; first compound 0.1 µM): 0.55 | relative viability (HARA; first compound 0.001 µM): 0.445 | relative viability (HARA; first compound 0.003162 µM): 0.307 | relative viability (HARA; first compound 0.01 µM): 0.458 | relative viability (HARA; first compound 0.03162 µM): 0.197 | relative viability (HARA; first compound 0.1 µM): 0.186 | relative viability (COR-L23; first compound 0.001 µM): 0.777 | relative viability (COR-L23; first compound 0.003162 µM): 1.01 | relative viability (COR-L23; first compound 0.01 µM): 1.4 | relative viability (COR-L23; first compound 0.03162 µM): 0.901 | relative viability (COR-L23; first compound 0.1 µM): 0.607 | relative viability (LK-2; first compound 0.001 µM): 0.614 | relative viability (LK-2; first compound 0.003162 µM): 0.451 | relative viability (LK-2; first compound 0.01 µM): 0.577 | relative viability (LK-2; first compound 0.03162 µM): 0.594 | relative viability (LK-2; first compound 0.1 µM): 0.608 | relative viability (A-427; first compound 0.001 µM): 0.728 | relative viability (A-427; first compound 0.01 µM): 0.731 | relative viability (A-427; first compound 0.03162 µM): 0.658 | relative viability (A-427; first compound 0.1 µM): 0.11 | relative viability (UMC-11; first compound 0.001 µM): 0.801 | relative viability (UMC-11; first compound 0.003162 µM): 1.03 | relative viability (UMC-11; first compound 0.01 µM): 0.972 | relative viability (UMC-11; first compound 0.1 µM): 0.287 | relative viability (NCI-H2405; first compound 0.001 µM): 0.426 | relative viability (NCI-H2405; first compound 0.003162 µM): 0.404 | relative viability (NCI-H2405; first compound 0.01 µM): 0.315 | relative viability (NCI-H2405; first compound 0.03162 µM): 0.296 | relative viability (NCI-H2405; first compound 0.1 µM): 0.345 | relative viability (NCI-H520; first compound 0.001 µM): 0.283 | relative viability (NCI-H520; first compound 0.01 µM): 0.296 | relative viability (NCI-H520; first compound 0.03162 µM): 0.283 | relative viability (NCI-H520; first compound 0.1 µM): 0.232 | relative viability (NCI-H1650; first compound 0.001 µM): 0.534 | relative viability (NCI-H1650; first compound 0.003162 µM): 0.709 | relative viability (NCI-H1650; first compound 0.01 µM): 0.562 | relative viability (NCI-H1650; first compound 0.03162 µM): 0.546 | relative viability (NCI-H1650; first compound 0.1 µM): 0.288 | relative viability (NCI-H1651; first compound 0.001 µM): 0.576 | relative viability (NCI-H1651; first compound 0.003162 µM): 0.619 | relative viability (NCI-H1651; first compound 0.01 µM): 0.638 | relative viability (NCI-H1651; first compound 0.03162 µM): 0.568 | relative viability (NCI-H1651; first compound 0.1 µM): 0.308 | relative viability (201T; first compound 0.001 µM): 0.732 | relative viability (201T; first compound 0.003162 µM): 0.742 | relative viability (201T; first compound 0.01 µM): 0.531 | relative viability (201T; first compound 0.1 µM): 0.459 | relative viability (NCI-H23; first compound 0.001 µM): 0.411 | relative viability (NCI-H23; first compound 0.003162 µM): 0.498 | relative viability (NCI-H23; first compound 0.01 µM): 0.546 | relative viability (NCI-H23; first compound 0.03162 µM): 0.348 | relative viability (NCI-H23; first compound 0.1 µM): 0.403

Reference: the supplement of paper PMC10307832
